The results in this text go back to patent US8759481B2, “Peptide vaccines for cancers expressing tumor-associated antigens” (Oncotherapy Science, Inc., priority 2007, dated 2014).

In the assay the test system is peptide-pulsed T2 cells. Kind of assay: CTL line establishment, IFN-gamma ELISA. Particulars: HLA-A*0201, 9-mer peptides derived from INHBB; CTL lines/positive wells. Format: cell-based, human. Put shortly:
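CTLs expanded with MMC-inactivated B-lymphoblastoid lines, 40 ng/ml anti-CD3 and IL-2 (120 IU/ml day 1, then 30 IU/ml on days 5, 8, 11). Peptide-pulsed T2 or A24-LCL stimulators (1×10^4/well) incubated with cultured wells or limiting-dilution clones as responders; IFN-gamma detected by ELISPOT (positive wells) and ELISA (established CTL lines).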
For orientation: An ELISA detects its analyte on a solid surface through an enzyme-linked reagent.

For VQCDSCQEL, the “positive CTL line” value was 0/1.
